Numbered stars: 1 amine (or outer) side, 2 acyl side, 3 side chain; on linkers, the order of the positions; unused ones are H or OH. Square brackets hold non-standard residues; d marks the D form. Peptide text beside a SMILES is read from it. * marks the point of attachment. DOTA = O=C(O)CN1CCN(CC(=O)O)CCN(CC(=O)*)CCN(CC(=O)O)CC1; NMeH = CN[C@@H](Cc1c[nH]cn1)C(=O)O; X1 = O=C(CN1CCC(N[*:1])CC1)[*:2]; Tle = CC(C)(C)[C@H](N)C(=O)O; Thz = O=C(O)[C@@H]1CSCN1
How the values were obtained:
[1] = test system: PC-3 tumor-bearing NRG mouse; assay: Longitudinal SPECT/CT imaging in PC-3 tumor-bearing mice; type: in vivo, mice (NRG); conditions: SPECT/CT images
Description: The PC-3 tumor-bearing mice were sedated (2.5% isoflurane in O2) and injected with ^177Lu-labeled ligands (15–32 MBq) through a lateral caudal tail vein. […] At each time point, a 5 min CT scan was obtained using 615 μA and 60 kV parameters for localization and attenuation, followed by 2 × 30 min static SPECT scans acquired in list mode with an energy window centered around 208 keV. The MILabs U-SPECT II reconstruction software (version 8.00) was used to reconstruct data, and the images were decay corrected to the time of injection with PMOD v 3.402 (PMOD Technologies GmbH, Fallanden, Switzerland).

PC-3 tumor-bearing mice = assay: Ex vivo biodistribution in PC-3 tumor-bearing mice
Description: (§1) SPECT/CT imaging experiments were performed using an MILabs (Houten, The Netherlands) U-SPECT-II/CT scanner with a custom-made ultra-high-sensitivity big mouse collimator (2 mm pinhole size) following previously reported procedures. […] Male NOD.Cg-Rag1^tm1Mom Il2rg^tm1Wjl/SzJ (NRG) mice were used in these experiments because of their immunodeficient characteristics and excellent radiation tolerance. Mice were anaesthetized and subcutaneously implanted with 5 × 10^6 PC-3 prostate cancer cells (100 µL; 1:1 PBS/Matrigel) behind the left shoulder. SPECT/CT imaging and biodistribution studies were performed once the tumors reached a diameter of 5–8 mm, typically after approximately 4 weeks of growth.
(§2) For ex vivo biodistribution studies, the mice were injected with ~2–6 MBq of the radioligand. […] Blocking study was conducted at 1 h post-injection via co-injection of the radioligand with 100 μg of [D-Phe^6,Leu-NHEt^13,des-Met^14]Bombesin(6–14). Organs/tissues of interested were collected, weighed, and measured using an automatic gamma counter.

[2] = Ex vivo biodistribution in PC-3 tumor-bearing mice; conditions: mouse; for tissue to tissue ratio at 1 h / tissue to tissue ratio at 4 h / tissue to tissue ratio at 24 h / tissue to tissue ratio at 72 h / tissue to tissue ratio at 120 h: male, NOD.Cg-Rag1^tm1Mom Il2rg^tm1Wjl/SzJ (NRG), total radioactivity; for tissue to tissue ratio at 4 h / tissue uptake at 4 h: 4 h post-injection; for tissue to tissue ratio at 24 h / tissue uptake at 24 h: 24 h post-injection; for tissue to tissue ratio at 72 h / tissue uptake at 72 h: 72 h post-injection
Description: as §1, §2

[3] = 1 h blocked (co-injected with 100 µg [D-Phe6,Leu-NHEt13,des-Met14]Bombesin(6-14))
[4] = 1 h post-injection, 100 µg [D-Phe6,Leu-NHEt13,des-Met14]Bombesin(6–14)
[5] = tumor/blood, Tumor/blood uptake ratio
[6] = tumor/kidney, Tumor/kidney uptake ratio
[7] = tumor/muscle, Tumor/muscle uptake ratio
[8] = tumor/pancreas, Tumor/pancreas uptake ratio
[9] = PC-3 tumor, Uptake in PC-3 tumor
[10] = adrenal glands, Uptake in adrenal glands

excretion pathway [1]: excreted mainly via the renal pathway
Uptake in lungs (PC-3 tumor-bearing mice; [3]): 1.06 ± 0.27 %ID/g
Uptake in stomach (PC-3 tumor-bearing mice; [3]): 0.17 ± 0.06 %ID/g
Uptake in bone (PC-3 tumor-bearing mice; 1 h post-injection): 0.15 ± 0.03 %ID/g
Uptake in kidneys (PC-3 tumor-bearing mice; 1 h post-injection): 6.86 ± 0.81 %ID/g
Uptake in large intestine (PC-3 tumor-bearing mice; 1 h post-injection): 0.76 ± 0.16 %ID/g
Uptake in liver (PC-3 tumor-bearing mice; 1 h post-injection): 0.71 ± 0.08 %ID/g
Uptake in pancreas (PC-3 tumor-bearing mice; 1 h post-injection): 4.45 ± 0.83 %ID/g
Uptake in spleen (PC-3 tumor-bearing mice; 1 h post-injection): 0.47 ± 0.07 %ID/g
Uptake in testes (PC-3 tumor-bearing mice; 1 h post-injection): 0.32 ± 0.18 %ID/g
Uptake in heart (PC-3 tumor-bearing mice; 4 h post-injection): 0.06 ± 0.01 %ID/g
Uptake in kidneys (PC-3 tumor-bearing mice; 4 h post-injection): 5.51 ± 0.54 %ID/g
Uptake in spleen (PC-3 tumor-bearing mice; 4 h post-injection): 0.17 ± 0.04 %ID/g
Uptake in pancreas (PC-3 tumor-bearing mice; 24 h post-injection): 1.06 ± 0.26 %ID/g
Uptake in liver (PC-3 tumor-bearing mice; 72 h post-injection): 0.12 ± 0.03 %ID/g
Uptake in stomach (PC-3 tumor-bearing mice; 72 h post-injection): 0.10 ± 0.05 %ID/g
Uptake in adrenal glands (PC-3 tumor-bearing mice; 120 h post-injection): 0.17 ± 0.09 %ID/g
uptake in PC-3 tumor xenografts cleared within 24 h (PC-3 tumor-bearing mice; relative to 1 h uptake): 47%
tissue to tissue ratio at 1 h ([2]; tumor/blood, Tumor/blood uptake ratio, 1 h blocked (co-injected with 100 µg [D-Phe6,Leu-NHEt13,des-Met14]Bombesin(6-14))): 3.91 ± 0.87
tissue to tissue ratio at 1 h ([2]; tumor/blood, Tumor/blood uptake ratio, 1 h post-injection): 8.08 ± 0.92
tissue to tissue ratio at 4 h [2, 5]: 162 ± 52
tissue to tissue ratio at 24 h [2, 5]: 841 ± 162
tissue to tissue ratio at 72 h [2, 5]: 1620 ± 500
tissue to tissue ratio at 120 h ([2]; tumor/blood, Tumor/blood uptake ratio, 120 h post-injection): 1800 ± 724
tissue to tissue ratio at 1 h ([2]; tumor/kidney, Tumor/kidney uptake ratio, 1 h blocked (co-injected with 100 µg [D-Phe6,Leu-NHEt13,des-Met14]Bombesin(6-14))): 0.7 ± 0.15
tissue to tissue ratio at 1 h ([2]; tumor/kidney, Tumor/kidney uptake ratio, 1 h post-injection): 1.95 ± 0.04
tissue to tissue ratio at 4 h [2, 6]: 2.14 ± 0.26
tissue to tissue ratio at 24 h [2, 6]: 2.88 ± 0.84
tissue to tissue ratio at 72 h [2, 6]: 7.34 ± 1.83
tissue to tissue ratio at 120 h ([2]; tumor/kidney, Tumor/kidney uptake ratio, 120 h post-injection): 7.46 ± 1.11
tissue to tissue ratio at 1 h ([2]; tumor/muscle, Tumor/muscle uptake ratio, 1 h blocked (co-injected with 100 µg [D-Phe6,Leu-NHEt13,des-Met14]Bombesin(6-14))): 25.2 ± 10.1
tissue to tissue ratio at 1 h ([2]; tumor/muscle, Tumor/muscle uptake ratio, 1 h post-injection): 60.1 ± 5.97
tissue to tissue ratio at 4 h [2, 7]: 454 ± 53.3
tissue to tissue ratio at 24 h [2, 7]: 672 ± 161
tissue to tissue ratio at 72 h [2, 7]: 736 ± 189
tissue to tissue ratio at 120 h ([2]; tumor/muscle, Tumor/muscle uptake ratio, 120 h post-injection): 588 ± 92.8
tissue to tissue ratio at 1 h ([2]; tumor/pancreas, Tumor/pancreas uptake ratio, 1 h blocked (co-injected with 100 µg [D-Phe6,Leu-NHEt13,des-Met14]Bombesin(6-14))): 2.79 ± 0.69
tissue to tissue ratio at 1 h ([2]; tumor/pancreas, Tumor/pancreas uptake ratio, 1 h post-injection): 3.06 ± 0.45
tissue to tissue ratio at 4 h [2, 8]: 7.53 ± 0.35
tissue to tissue ratio at 24 h [2, 8]: 6.78 ± 0.88
tissue to tissue ratio at 72 h [2, 8]: 6.18 ± 0.6
tissue to tissue ratio at 120 h ([2]; tumor/pancreas, Tumor/pancreas uptake ratio, 120 h post-injection): 4.08 ± 1
tissue uptake at 1 h ([2]; PC-3 tumor, 100 ug, Uptake in PC-3 tumor, 1 h blocked (co-injected with 100 µg [D-Phe6,Leu-NHEt13,des-Met14]Bombesin(6-14))): 5.03 ± 0.43 %ID/g
tissue uptake at 1 h ([2]; PC-3 tumor, Uptake in PC-3 tumor, 1 h post-injection): 13.4 ± 1.48 %ID/g
tissue uptake at 4 h [2, 9]: 11.8 ± 2.24 %ID/g
tissue uptake at 24 h [2, 9]: 7.07 ± 1.23 %ID/g
tissue uptake at 72 h [2, 9]: 4.18 ± 0.6 %ID/g
tissue uptake at 120 h ([2]; PC-3 tumor, Uptake in PC-3 tumor, 120 h post-injection): 2.25 ± 0.71 %ID/g
tissue uptake at 1 h ([2]; adrenal glands, 100 ug, Uptake in adrenal glands, 1 h blocked (co-injected with 100 µg [D-Phe6,Leu-NHEt13,des-Met14]Bombesin(6-14))): 0.75 ± 0.33 %ID/g
tissue uptake at 1 h ([2]; adrenal glands, Uptake in adrenal glands, 1 h post-injection): 1.43 ± 0.5 %ID/g
tissue uptake at 4 h [2, 10]: 0.59 ± 0.06 %ID/g
tissue uptake at 24 h [2, 10]: 0.41 ± 0.08 %ID/g
tissue uptake at 72 h [2, 10]: 0.2 ± 0.05 %ID/g
tissue uptake at 1 h ([2]; blood, 100 ug, Uptake in blood, 1 h blocked (co-injected with 100 µg [D-Phe6,Leu-NHEt13,des-Met14]Bombesin(6-14))): 1.34 ± 0.35 %ID/g
tissue uptake at 1 h ([2]; blood, Uptake in blood, 1 h post-injection): 1.67 ± 0.21 %ID/g
tissue uptake at 4 h ([2]; blood, Uptake in blood): 0.08 ± 0.01 %ID/g
tissue uptake at 24 h ([2]; blood, Uptake in blood): 0.01 %ID/g
tissue uptake at 1 h ([2]; bone, 100 ug, Uptake in bone, 1 h blocked (co-injected with 100 µg [D-Phe6,Leu-NHEt13,des-Met14]Bombesin(6-14))): 0.13 ± 0.03 %ID/g
tissue uptake at 4 h ([2]; bone, Uptake in bone): 0.03 ± 0.01 %ID/g
tissue uptake at 24 h ([2]; bone, Uptake in bone): 0.03 ± 0.01 %ID/g
Structure (SMILES): CC(C)C[C@H](NC(=O)[C@H](Cc1cnc[nH]1)N(C)C(=O)CNC(=O)[C@@H](NC(=O)[C@H](C)NC(=O)[C@H](Cc1c[nH]c2ccccc12)NC(=O)[C@H](Cc1c[nH]cn1)NC(=O)[C@@H](Cc1ccccc1)NC(=O)CN1CCC(NC(=O)CN2CCN(CC(=O)O)CCN(CC(=O)O)CCN(CC(=O)O)CC2)CC1)C(C)(C)C)C(=O)N1CSC[C@H]1C(N)=O [[^177Lu]Lu-LW01142, metal not drawn] ({DOTA}-[X1][dF]HWA[Tle]G[NMeH]L[Thz]-NH2)
reduction of average pancreas uptake by co-injection of blocker (PC-3 tumor-bearing mice; [4]): 58%
reduction of average tumor uptake by co-injection of blocker (PC-3 tumor-bearing mice; [4]): 62%

Reference: publication PMC12030706, “Novel ^177Lu-Labeled [Thz^14]Bombesin(6–14) Derivatives with Low Pancreas Accumulation for Targeting Gastrin-Releasing Peptide Receptor-Expressing Cancer” (Pharmaceuticals, 2025)
